From PubChem BioAssay AID330 (DTP/NCI, 2004)
Several values for one entry are separate records, joined by “and”; a condition that tells them apart may be missing. Equal values may be shown once. Inconclusive results and toxic doses are left out. The calls were made as follows: active = survival T/C of 150% or more; inactive = T/C below 125% in these data.

Tested on: P388 leukemia ip, CD2F1 mice, survival T/C
Assay: NCI In Vivo Anticancer Drug Screen. Data for tumor model P388 Leukemia (intraperitoneal) in CD2F1 (CDF1) mice
Settings: endpoint: median survival time, higher = longer survival
Procedure, shortened: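 Mice carrying the transplanted tumor received test compound or vehicle. Survival was recorded in each group, and the value is the treated-group measurement divided by that of the vehicle-treated control group.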

[1] = dose: 100.0 mg/kg/injection, schedule: Q01DX009 (ip), vehicle: Klucel (hydroxypropylcellulose) (HPC)

Measured: T/C

CCCCC(CC)CCC(CC(C)C)OCCC#N (centres undefined)
inactive: [1] 100 % of control | dose: 200.0 mg/kg/injection, schedule: Q01DX009 (ip), vehicle: Klucel (hydroxypropylcellulose) (HPC) 96 % of control | dose: 400.0 mg/kg/injection, schedule: Q01DX009 (ip), vehicle: Klucel (hydroxypropylcellulose) (HPC) 90 % of control

CN(C)CCCNc1c2c(nc3ccc(Cl)cc13)CCCC2
inactive: dose: 50.0 mg/kg/injection, schedule: Q01DX005 (ip), vehicle: saline with Tween-80 104 % of control | dose: 100.0 mg/kg/injection, schedule: Q01DX005 (ip), vehicle: saline with Tween-80 106 % of control

C/C=C/C#CC#C/C=C/C=C/CC
inactive: dose: 12.5 mg/kg/injection, schedule: Q01DX009 (ip), vehicle: Klucel (hydroxypropylcellulose) (HPC) 104 % of control | dose: 25.0 mg/kg/injection, schedule: Q01DX009 (ip), vehicle: Klucel (hydroxypropylcellulose) (HPC) 98 % of control | dose: 50.0 mg/kg/injection, schedule: Q01DX009 (ip), vehicle: Klucel (hydroxypropylcellulose) (HPC) 103 % of control | [1] 98 % of control

CCC(c1ccc(OCc2ccccc2)cc1)c1cc2c(cc1OCCO)OCO2 (centres undefined)
inactive: dose: 50.0 mg/kg/injection, schedule: Q01DX005 (ip), vehicle: distilled water + Tween-80 87 % of control | dose: 100.0 mg/kg/injection, schedule: Q01DX005 (ip), vehicle: distilled water + Tween-80 87 % of control | dose: 200.0 mg/kg/injection, schedule: Q01DX005 (ip), vehicle: distilled water + Tween-80 89 % of control

C/C(=N\NC(=S)N1CCCC1)c1ncccn1
inactive: dose: 12.5 mg/kg/injection, schedule: Q04DX003 (ip), vehicle: Klucel (hydroxypropylcellulose) (HPC) 108 % of control | dose: 25.0 mg/kg/injection, schedule: Q04DX003 (ip), vehicle: Klucel (hydroxypropylcellulose) (HPC) 108 % of control | dose: 50.0 mg/kg/injection, schedule: Q04DX003 (ip), vehicle: Klucel (hydroxypropylcellulose) (HPC) 112 % of control

CN(C)S(=O)(=O)c1cccc(N)c1
inactive: dose: 25.0 mg/kg/injection, schedule: Q04DX003 (ip), vehicle: saline with Tween-80 93 % of control | dose: 50.0 mg/kg/injection, schedule: Q04DX003 (ip), vehicle: saline with Tween-80 95 % of control | dose: 100.0 mg/kg/injection, schedule: Q04DX003 (ip), vehicle: saline with Tween-80 100 % of control | dose: 200.0 mg/kg/injection, schedule: Q04DX003 (ip), vehicle: saline with Tween-80 94 % of control

CCOSN1CCOCC1
inactive: dose: 25.0 mg/kg/injection, schedule: Q04DX002 (ip), vehicle: saline 101 % of control | dose: 50.0 mg/kg/injection, schedule: Q04DX002 (ip), vehicle: saline 101 % of control | dose: 100.0 mg/kg/injection, schedule: Q04DX002 (ip), vehicle: saline 100 % of control and 93 % of control

Cc1ccc(-c2nc3n(c2/C=N/NS(=O)(=O)c2ccc(C)cc2)CCS3)cc1
inactive: dose: 100.0 mg/kg/injection, schedule: Q01DX001 (ip), vehicle: Klucel (hydroxypropylcellulose) (HPC) 100 % of control | dose: 200.0 mg/kg/injection, schedule: Q01DX001 (ip), vehicle: Klucel (hydroxypropylcellulose) (HPC) 93 % of control | dose: 400.0 mg/kg/injection, schedule: Q01DX001 (ip), vehicle: Klucel (hydroxypropylcellulose) (HPC) 91 % of control

Cc1ccc(NC(=O)CNCC(C)C)cc1Cl
inactive: dose: 50.0 mg/kg/injection, schedule: Q01DX005 (ip), vehicle: Klucel (hydroxypropylcellulose) (HPC) 100 % of control | dose: 100.0 mg/kg/injection, schedule: Q01DX005 (ip), vehicle: Klucel (hydroxypropylcellulose) (HPC) 109 % of control | dose: 200.0 mg/kg/injection, schedule: Q01DX005 (ip), vehicle: Klucel (hydroxypropylcellulose) (HPC) 100 % of control

O=C(c1ccc(F)cc1)c1no[n+]([O-])c1C(=O)c1ccc(F)cc1
inactive: dose: 37.5 mg/kg/injection, schedule: Q01DX009 (ip), vehicle: saline with Tween-80 122 % of control | dose: 75.0 mg/kg/injection, schedule: Q01DX009 (ip), vehicle: saline with Tween-80 118 % of control

O=C1C2C3CCC(O3)C2C(=O)N1CC#CCCl (centres undefined)
inactive: dose: 7.5 mg/kg/injection, schedule: Q01DX005 (ip), vehicle: saline with Tween-80 96 % of control | dose: 15.0 mg/kg/injection, schedule: Q01DX005 (ip), vehicle: saline with Tween-80 100 % of control

COC1/C=C/OC2(C)Oc3c(C)c(O)c4c(O)c(c(/C=N/N5C(C)CN(Cc6ccc([N+](=O)[O-])cc6)CC5C)c(O)c4c3C2=O)NC(=O)/C(C)=C\C=C\C(C)C(O)C(C)C(O)C(C)C(OC(C)=O)C1C (centres undefined)
inactive: dose: 25.0 mg/kg/injection, schedule: Q01DX009 (ip), vehicle: saline with Tween-80 100 % of control | dose: 25.0 mg/kg/injection, schedule: Q01DX009 (ip), vehicle: suspension in saline 103 % of control | dose: 50.0 mg/kg/injection, schedule: Q01DX009 (ip), vehicle: saline with Tween-80 104 % of control and 119 % of control | dose: 50.0 mg/kg/injection, schedule: Q01DX009 (ip), vehicle: suspension in saline 103 % of control | dose: 100.0 mg/kg/injection, schedule: Q01DX009 (ip), vehicle: saline with Tween-80 119 % of control | dose: 100.0 mg/kg/injection, schedule: Q01DX009 (ip), vehicle: suspension in saline 108 % of control | dose: 200.0 mg/kg/injection, schedule: Q01DX009 (ip), vehicle: suspension in saline 119 % of control
